Test results taken from PubChem BioAssay (NCI).
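Cells were grown in 96-well plates and exposed to each compound for 48 hours at five concentrations; endpoints were interpolated linearly between bracketing concentrations, or set to the highest concentration if not reached. At the GI50, growth is halved. TGI: total growth inhibition.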

Tests used:
Experiment in all cases: inhibition of tumour cell growth, NCI panel, 48 h
A549 NSCLC = system: A549 NSCLC
LOX IMVI melanoma = system: LOX IMVI melanoma
ACHN renal = system: ACHN renal
CCRF-CEM leukemia = system: CCRF-CEM leukemia
SK-MEL-28 melanoma = system: SK-MEL-28 melanoma
HCC-2998 colon = system: HCC-2998 colon
UACC-62 melanoma = system: UACC-62 melanoma
K-562 leukemia = system: K-562 leukemia
HCT-116 colon = system: HCT-116 colon
COLO 205 colon = system: COLO 205 colon
RXF 393 renal = system: RXF 393 renal
NCI-H522 lung = system: NCI-H522 lung
EKVX NSCLC = system: EKVX NSCLC
HCT-15 colon = system: HCT-15 colon
MALME-3M melanoma = system: MALME-3M melanoma
OVCAR-5 ovarian = system: OVCAR-5 ovarian
MCF7 breast = system: MCF7 breast
T-47D breast = system: T-47D breast
OVCAR-4 ovarian = system: OVCAR-4 ovarian
M14 melanoma = system: M14 melanoma
BT-549 breast = system: BT-549 breast
SF-268 CNS = system: SF-268 CNS
PC-3 prostate = system: PC-3 prostate
SR leukemia = system: SR leukemia
IGROV1 ovarian = system: IGROV1 ovarian
U251 CNS = system: U251 CNS
SNB-75 CNS = system: SNB-75 CNS
SK-OV-3 ovarian = system: SK-OV-3 ovarian
OVCAR-3 ovarian = system: OVCAR-3 ovarian
UO-31 renal = system: UO-31 renal
HT29 colon = system: HT29 colon
KM12 colon = system: KM12 colon
NCI/ADR-RES ovarian = system: NCI/ADR-RES ovarian
NCI-H460 lung = system: NCI-H460 lung
TK-10 renal = system: TK-10 renal
HS 578T breast = system: HS 578T breast
SF-539 CNS = system: SF-539 CNS
HL-60(TB) leukemia = system: HL-60(TB) leukemia
SNB-19 CNS = system: SNB-19 CNS
A498 renal = system: A498 renal
OVCAR-8 ovarian = system: OVCAR-8 ovarian
SK-MEL-2 melanoma = system: SK-MEL-2 melanoma
DU-145 prostate = system: DU-145 prostate
MDA-MB-231 breast = system: MDA-MB-231 breast
SF-295 CNS = system: SF-295 CNS
NCI-H23 lung = system: NCI-H23 lung
786-0 renal = system: 786-0 renal
MOLT-4 leukemia = system: MOLT-4 leukemia
HOP-92 NSCLC = system: HOP-92 NSCLC
SW-620 colon = system: SW-620 colon
CAKI-1 renal = system: CAKI-1 renal
NCI-H226 lung = system: NCI-H226 lung
SN12C renal = system: SN12C renal
UACC-257 melanoma = system: UACC-257 melanoma
RPMI-8226 leukemia = system: RPMI-8226 leukemia
HOP-62 NSCLC = system: HOP-62 NSCLC

## CCCCCCCC[C@@H](O)CC(=O)N[C@@H](CC(N)=O)C(=O)N[C@@H](CCC(N)=O)C(=O)N[C@@H](CC(=O)c1cc(C)cc(O)c1C(=O)c1c(O)cccc1O)CC(C)C
A549 NSCLC
  GI50: 5.31 µM
  TGI: > 100 µM
LOX IMVI melanoma
  GI50: 1.32 µM
  TGI: 3.9 µM
ACHN renal
  GI50: 3.09 µM
  TGI: > 100 µM
CCRF-CEM leukemia
  GI50: 0.398 µM
  TGI: > 100 µM
SK-MEL-28 melanoma
  GI50: 1.59 µM
  TGI: 25.5 µM
HCC-2998 colon
  GI50: 0.403 µM
  TGI: 1.43 µM
UACC-62 melanoma
  GI50: 0.317 µM
  TGI: 1.89 µM
K-562 leukemia
  GI50: 0.408 µM
  TGI: > 100 µM
HCT-116 colon
  GI50: 0.303 µM
  TGI: 1.78 µM
COLO 205 colon
  GI50: 0.399 µM
  TGI: 12 µM
RXF 393 renal
  GI50: 0.214 µM
  TGI: 0.713 µM
NCI-H522 lung
  GI50: 0.228 µM
  TGI: 0.815 µM
EKVX NSCLC
  GI50: 3.35 µM
  TGI: 75.5 µM
HCT-15 colon
  GI50: 2.25 µM
  TGI: 23.8 µM
MALME-3M melanoma
  GI50: 0.667 µM
  TGI: > 100 µM
OVCAR-5 ovarian
  TGI: 27.7 µM
MCF7 breast
  GI50: 0.539 µM
  TGI: > 100 µM
T-47D breast
  GI50: 1.15 µM
  TGI: 4.51 µM
OVCAR-4 ovarian
  GI50: 2.07 µM
  TGI: > 100 µM
M14 melanoma
  GI50: 0.735 µM
  TGI: 18.4 µM
BT-549 breast
  GI50: 0.296 µM
  TGI: 2.25 µM
SF-268 CNS
  GI50: 0.374 µM
  TGI: 2.55 µM
PC-3 prostate
  GI50: 0.31 µM
  TGI: 47.9 µM
SR leukemia
  GI50: 0.112 µM
  TGI: > 100 µM
IGROV1 ovarian
  GI50: 0.261 µM
  TGI: > 100 µM
U251 CNS
  GI50: 0.265 µM
  TGI: 2.33 µM
SNB-75 CNS
  GI50: 0.199 µM
  TGI: 0.585 µM
SK-OV-3 ovarian
  GI50: 12.6 µM
  TGI: > 100 µM
OVCAR-3 ovarian
  GI50: 0.307 µM
  TGI: 1.2 µM
UO-31 renal
  GI50: 3.9 µM
  TGI: 24.7 µM
HT29 colon
  GI50: 0.404 µM
  TGI: 5.49 µM
KM12 colon
  GI50: 0.971 µM
  TGI: 3.3 µM
NCI/ADR-RES ovarian
  GI50: 39.6 µM
  TGI: > 100 µM
NCI-H460 lung
  GI50: 3.29 µM
  TGI: 18.3 µM
TK-10 renal
  GI50: 0.179 µM
  TGI: 1.26 µM
HS 578T breast
  GI50: 3.46 µM
  TGI: 62 µM
SF-539 CNS
  GI50: 0.253 µM
  TGI: 0.783 µM
HL-60(TB) leukemia
  GI50: 1.89 µM
  TGI: > 100 µM
SNB-19 CNS
  GI50: 0.244 µM
  TGI: > 100 µM
A498 renal
  GI50: 2.29 µM
  TGI: 7.44 µM
OVCAR-8 ovarian
  GI50: 3.23 µM
  TGI: 46.6 µM
SK-MEL-2 melanoma
  GI50: 2.76 µM
  TGI: 8.32 µM
DU-145 prostate
  GI50: 1.14 µM
  TGI: 18.3 µM
MDA-MB-231 breast
  GI50: 0.678 µM
  TGI: 68.3 µM
SF-295 CNS
  GI50: 1.97 µM
  TGI: 7.53 µM
NCI-H23 lung
  GI50: 1.36 µM
  TGI: 14.8 µM
786-0 renal
  GI50: 0.507 µM
  TGI: 9.84 µM
MOLT-4 leukemia
  GI50: 0.308 µM
  TGI: > 100 µM
HOP-92 NSCLC
  GI50: 0.201 µM
  TGI: 0.939 µM
SW-620 colon
  GI50: 0.426 µM
  TGI: 23.6 µM
CAKI-1 renal
  GI50: 1.51 µM
  TGI: > 100 µM
NCI-H226 lung
  GI50: 0.237 µM
  TGI: 0.746 µM
SN12C renal
  GI50: 2.13 µM
  TGI: 15.8 µM
UACC-257 melanoma
  GI50: 0.45 µM
  TGI: 4.68 µM
RPMI-8226 leukemia
  GI50: 0.0926 µM
  TGI: 0.883 µM
HOP-62 NSCLC
  GI50: 0.86 µM
  TGI: 4.92 µM
